Experimental data published in US20260137706A1, “METHODS OF TREATING INFLAMMATORY DISEASES” (INTERLINE THERAPEUTICS, INC., priority 2023, published 2026).
pIC50: −log10 of the molar value. Where two headings read alike, the source gives them in different places.

Columns and labels:
[1] = biological target: T1, binding of His-XIAP(BIR2)-avi fusion protein to GST-RIPK2 fusion protein (RIPK2/XIAP) (Homo sapiens, UniProt O43353); assay: RIPK2-XIAP binding competition PPI assay (TR-FRET); settings: RIPK2/XIAP binding competition PPI assay; for Emax: Amax, read-out: PPI Amax bin; for pIC50: read-out: PPI IC50 bin
T1 construct: made in house; host or cells: baculovirus infected Sf9 cells
T1 sequence (O43353 1-310 limits assumed): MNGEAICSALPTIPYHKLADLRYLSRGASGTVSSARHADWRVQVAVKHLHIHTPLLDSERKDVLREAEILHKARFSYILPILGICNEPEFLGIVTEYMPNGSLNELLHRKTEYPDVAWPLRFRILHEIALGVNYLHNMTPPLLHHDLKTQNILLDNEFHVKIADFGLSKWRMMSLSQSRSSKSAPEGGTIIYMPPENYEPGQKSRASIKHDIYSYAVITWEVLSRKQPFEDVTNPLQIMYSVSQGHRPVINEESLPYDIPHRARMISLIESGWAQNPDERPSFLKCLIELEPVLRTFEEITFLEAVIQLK
Excerpt: The ability of selected compounds of Formula (I) to inhibit the binding of an His-XIAP(BIR2)-avi fusion protein to a GST-RIPK2 fusion protein was quantified employing the TR-FRET-based competition assay as described in the following paragraphs.
Recombinant fusion protein of N-terminal Glutathione-S-Transferase (GST) and a fragment of human RIPK2 (amino acids 1-310 of accession number 043353), expressed in baculovirus infected Sf9 cells, purified via glutathione affinity chromatography, was used as GST-RIPK2 fusion protein. Recombinant fusion protein of N-terminal 6×Histidine (His), a fragment of human XIAP (amino acids 152-231 of accession number P98170), and C-terminal avi tag, expressed in baculovirus infected Sf9 cells, purified via Nickel NTA affinity chromatography, was used as the His-XIAP(BIR2)-avi fusion protein.
For the assay, a working solution of 1 nM GST-RIPK2, 25 nM His-XIAP(BIR2)-avi, 6 nM Anti-His-XL665 […] (Revvity Catalogue No. 61HISXLB), and 0.5 nM Anti-GST-Tb (Revvity Catalogue No. 61GSTTLB) in 25 mM Tris-HCl 7.5, 0.5 mM ethylene glycol-bis(2-aminoethylether)-N,N,N′,N′-tetraacetic acid (EGTA), 10 mM magnesium chloride (MgCl2), 2.5 mM dithiothreitol (DTT), 0.01% (w/v) bovine serum albumin (BSA), 0.005% (w/v) Pluronic F-127 (Sigma), 0.5 mM sodium ortho-vanadate, 5 mM β-Glycerophosphate disodium salt hydrate (BGP) was prepared. 50 nL of a 100-fold concentrated solution of each test compound in DMSO was dispensed via acoustic dispensing into a white low volume 384-well microtiter plate (Perkin Elmer Catalogue No. 6008280). Subsequently, 5 μL of the assay working solution were added.
The resulting mixture was incubated 120 min at 23° C. Subsequently, the amount of complex formed by the GST-RIPK2, XIAP(BIR2)-avi, Anti-His-XL665, and Anti-GST-Tb was evaluated by measurement of the resonance energy transfer from the Tb-cryptate to the XL665. Therefore, the fluorescence emissions at 520 nm and 665 nm after excitation at 337 nm were measured in a TR-FRET reader, e.g. a Pherastar FS (BMG Labtechnologies, Offenburg, Germany) or an Envision (PerkinElmer). The ratio of the emissions at 665 nm and at 520 nm was taken as the measure of the amount of the complex. The data were normalized (assay reaction without inhibitor=0% activity, 50 nM of GSK583=−100% activity).
For the RIPK2/XIAP binding competition PPI assay Amax values, “A” denotes an Amax of ≥80%; “B” denotes an Amax of 80%>B≥55; “C” denotes an Amax of 55%>C>30; and “D” denotes an Amax of ≤30%.

[2] = biological target: T2, GST-RIPK2 fusion protein (human RIPK2, amino acids 1-310) (Homo sapiens, UniProt O43353); assay: RIPK2 binding competition assay (TR-FRET, Tracer 199 displacement); settings: 10 nM Tracer 199, 1 nM GST-RIPK2, read-out: RIPK2 IC50
T2 construct: made in house; host or cells: baculovirus infected Sf9 cells
T2 sequence (O43353 1-310): as the sequence (O43353 1-310 limits assumed) above
Excerpt: The ability of selected compounds of Formula (I) to inhibit the binding of an Alexa647-labelled ATP-competitive kinase inhibitor to a GST-RIPK2 fusion protein was quantified employing the TR-FRET-based RIPK2 binding competition assay as described in the following paragraphs.
Recombinant fusion protein of N-terminal Glutathione-S-Transferase (GST) and a fragment of human RIPK2 (amino acids 1-310 of accession number 043353), expressed in baculovirus infected Sf9 cells, purified via glutathione affinity chromatography, was used as GST-RIPK2 fusion protein. Tracer 199 from Life Technologies (catalogue no. PR9115B) was used as Alexa647-labelled ATP-competitive kinase inhibitor.
For the assay, 50 nL of a 100-fold concentrated solution of each test compound in DMSO was pipetted into either a black low volume 384-well microtiter plate or a black 1536-well microtiter plate (both Greiner Bio-One, Frickenhausen, Germany), 3 μL solution of Tracer 199 (16.7 nM=>final concentration in 5 μL assay volume is 10 nM) in aqueous assay buffer (25 mM Tris/HCl pH 7.5, 10 mM magnesium chloride (MgCl2), 5 mM β-glycerophosphate, 2.5 mM dithiothreitol (DTT), 0.5 mM ethylene glycol-bis(2-aminoethylether)-N,N,N′,N′-tetraacetic acid (EGTA), 0.5 mM sodium ortho-vanadate, 0.01% (w/v) bovine serum albumin (BSA), 0.005% (w/v) Pluronic F-127 (Sigma)) were added. Then the binding competition was started by the addition of 2 μL of a solution of the GST-RIPK2 fusion protein (2.5 nM=>final conc. in the 5 μL assay volume is 1 nM) and of Anti-GST-Tb (1.25 nM=>final conc. in the 5 μL assay volume is 0.5 nM), a Lumi4®—Tb cryptate-conjugated anti-GST antibody from PerkinElmer (catalogue no 61GSTTAH), in assay buffer.
The resulting mixture was incubated 45 min at 22° C. to allow the formation of a complex between the Tracer 199, the fusion protein and Anti-GST-Tb. Subsequently, the amount of this complex was evaluated by measurement of the resonance energy transfer from the Tb-cryptate to the Tracer 199. Therefore, the fluorescence emissions at 620 nm and 665 nm after excitation at 337 nm were measured in a TR-FRET reader, e.g. a Pherastar FS (BMG Labtechnologies, Offenburg, Germany) or a Viewlux (PerkinElmer). The ratio of the emissions at 665 nm and at 620 nm was taken as the measure of the amount of the complex. The data were normalized (assay reaction without inhibitor=0% activity, all other assay components but no GST-RIPK2 fusion protein=−100% activity).
Table A1 below lists IC50 values of selected compounds of Formula (I) measured in the RIPK2 binding competition assay.

[3] = test system: NF-κB pathway (SEAP) in THP1-Dual cells; assay: THP-1 Dual cell SEAP assay (L18-MDP stimulated); format: cell-based; settings: read-out: NF-κB THP1 IC50 bin
Experimental: THP1-Dual™ cells (InvivoGen Cat #thpd-nfis) allow simultaneous assessment of the NF-κB pathway, by monitoring the activity of secreted embryonic alkaline phosphatase (SEAP) as well as the IRF pathway, by assessing the activity of a secreted luciferase (Lucia). Cells were cultured according to manufacturers' recommendations. For the assay, cell concentration was adjusted to 7.14×10^5 cells/mL in assay media (RPMI 1640, 2 mM L-Glutamine, 25 mM HEPES, 10% fetal bovine serum (heat-inactivated for 30 min at 56° C.), Pen-Strep (100 U/mL)) and 35 µL of cell suspension (˜25,000 cells) per well were added to a flat bottom 384-well plate (white opaque). Plate was centrifuged at 300 g for 2 min, compounds were added in serial dilution series according to the plate layout (volumes ˜500 nL-0.0152 nL) and plate was incubated at 37° C. in 5% CO2 for 30 min. Using assay media, a L18-MDP stock solution, that results in a final concentration of 10 ng/mL L18-MDP in each well when adding 15 μL to each well, was prepared. 15 μL of L18-MDP stock solution was added to each well, while 15 μL of assay media was added to the negative control wells. Plates were subsequently incubated at 37° C. in 5% CO2 overnight (20-24 h).
For the SEAP assay: without disturbing the cells at the bottom of the well, 15 μL supernatant was transferred to a clear 384-well flat bottom plate and 35 μL QUANTI-Blue Solution per well was added. Following a 2 h incubation at 37° C., the optical density (OD) was measured at 620-655 nm using a microplate reader (PheraStar FS microplate reader with protocol for OD 620-655 nm).
Values of media-only wells were subtracted and % inhibition for each compound concentration relative to the DMSO/L18-MDP-treated controls was calculated. Inhibition values+/−SD were fitted by non-linear regression using Prism software (GraphPad PRISM Software) to calculate IC50 values.

Row | Compound | Emax [1] [%] | pIC50 [1] | pIC50 [2] | pIC50 ([3]; Homo sapiens, THP1-Dual) | pIC50 [3]
1 | COc1cc2ncc(-c3cc(NS(=O)(=O)c4cnn(C)c4)c(OC)c(OC)c3)n2cc1S(=O)(=O)C(C)(C)C [Example 244, N-(5-(6-(tert-butylsulfonyl)-7-methoxyimidazo[1,2-a]pyridin-3-yl)-2,3-dimethoxyphenyl)-1-methyl-1H-pyrazole-4-sulfonamide] | > 80 | > 9.00 | 8.60 to 9.00 | > 7.30 | 
2 | COc1cc2ncc(-c3cc(F)c(N)nc3F)n2cc1S(=O)(=O)N1CCNCC1 [Example 164, 3,6-difluoro-5-(7-methoxy-6-(piperazin-1-ylsulfonyl)imidazo[1,2-a]pyridin-3-yl)pyridin-2-amine] | > 80 | < 7.70 | < 7.70 | < 6.00 | 
3 | C[C@@H](O)CCOc1cc2ncc(-c3cc(F)c(N)nc3F)n2cc1S(=O)(=O)C(C)(C)C [Example 36, (R)-4-((3-(6-amino-2,5-difluoropyridin-3-yl)-6-(tert-butylsulfonyl)imidazo[1,2-a]pyridin-7-yl)oxy)butan-2-ol] | > 80 | 7.70 to 8.60 | 8.60 to 9.00 | 6.60 to 7.30 | 
4 | CCS(=O)(=O)Nc1cc(-c2cnc3cc(OC[C@@H](C)O)c(S(=O)(=O)C(C)(C)C)cn23)cc(F)c1OC [Example 252, (R)-N-(5-(6-(tert-butylsulfonyl)-7-(2-hydroxypropoxy)imidazo[1,2-a]pyridin-3-yl)-3-fluoro-2-methoxyphenyl) ethanesulfonamide] | > 80 | > 9.00 | > 9.00 | > 7.30 | 
5 | C[C@H](CO)COc1cc2ncc(-c3cc4cc[nH]c4nc3F)n2cc1S(=O)(=O)C(C)(C)C [Example 228, (R)-3-((6-(tert-butylsulfonyl)-3-(6-fluoro-1H-pyrrolo[2,3-b]pyridin-5-yl)imidazo[1,2-a]pyridin-7-yl)oxy)-2-methylpropan-1-ol] | > 80 | > 9.00 | > 9.00 | > 7.30 | 
6 | CC(C)(C)S(=O)(=O)c1cn2c(-c3cc(F)c(N)nc3F)cnc2cc1OCCn1cccn1 [Example 24, 5-(7-(2-(1H-pyrazol-1-yl)ethoxy)-6-(tert-butylsulfonyl)imidazo[1,2-a]pyridin-3-yl)-3,6-difluoropyridin-2-amine] | > 80 | 7.70 to 8.60 | 7.70 to 8.60 | 6.60 to 7.30 | 
7 | COCCOc1cc2ncc(-c3cc(F)c(N)nc3F)n2cc1S(=O)(=O)C(C)(C)C [Example 16, 5-(6-(tert-butylsulfonyl)-7-(2-methoxyethoxy)imidazo[1,2-a]pyridin-3-yl)-3,6-difluoropyridin-2-amine] | > 80 | 7.70 to 8.60 | 7.70 to 8.60 | 6.00 to 6.60 | 
8 | COCCN1CCC(C)(S(=O)(=O)c2cn3c(-c4cc(F)c(N)nc4F)cnc3cc2OC)CC1 [Example 125, 3,6-difluoro-5-(7-methoxy-6-((1-(2-methoxyethyl)-4-methylpiperidin-4-yl)sulfonyl)imidazo[1,2-a]pyridin-3-yl)pyridin-2-amine] | > 80 | 7.70 to 8.60 | 7.70 to 8.60 | 6.00 to 6.60 | 
9 | COc1cc2nc(Cl)c(-c3ccc(N)nc3F)n2cc1S(=O)(=O)C(C)(C)C [Example 10, 5-(6-(tert-butylsulfonyl)-2-chloro-7-methoxyimidazo[1,2-a]pyridin-3-yl)-6-fluoropyridin-2-amine] | > 80 | < 7.70 | < 7.70 |  | 
10 | C[C@H](O)COc1cc2ncc(-c3cc4cc[nH]c4nc3F)n2cc1S(=O)(=O)C(C)(C)C [Example 268, (S)-1-((6-(tert-butylsulfonyl)-3-(6-fluoro-1H-pyrrolo[2,3-b]pyridin-5-yl)imidazo[1,2-a]pyridin-7-yl)oxy)propan-2-ol] | > 80 | > 9.00 |  | > 7.30 | 
11 | CC(C)(C)C(C)(O)c1cn2c(-c3cc(F)c(N)nc3F)cnc2cc1OCCO (stereo not shown) [Example 193, 2-(3-(6-amino-2,5-difluoropyridin-3-yl)-7-(2-hydroxyethoxy)imidazo[1,2-a]pyridin-6-yl)-3,3-dimethylbutan-2-ol] | > 80 |  | 7.70 to 8.60 |  | 
12 | COc1cc2ncc(-c3cc(F)c(OC)c(NC(C)c4cnn(C)c4)c3)n2cc1S(=O)(=O)C(C)(C)C (single isomer, unassigned) [Example 302] | > 80 | > 9.00 |  |  | > 7.30
